One block for each compound: values may come before it.
System: NCI-H1876 complex spheroid growth, % test/control
Assay: Anticancer human tumor NCI-H1876 cell line growth inhibition [Asc];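 note: compound exposure lasted 7 days starting three days after seeding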;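 for viability, T/C: 100% = DMSO vehicle control wells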
Details: for IC50: curve of first compound; for viability, T/C: stronger effect = lower value
Method: Multicellular complex tumor spheroid response to apoptosis pathway targeting inhibitors Alrizomadlin, Pelcitoclax, and Dasminapant in combination with a variety of drugs and investigational agents in selected tumor cell lines
The MDM2 inhibitor alrizomadlin, the Bcl-2/Bcl-xL inhibitor pelcitoclax, and the IAPs inhibitor dasminapant were evaluated both individually and in combination with standard of care and investigational anticancer small molecules within a complex spheroid model of solid tumors. . Complex spheroids include a stromal component modeled by human endothelial cells (HUVEC) and fibroblasts modeled by human mesenchymal stem cells (MSCs). The concentration ranges selected for each drug and investigational agent were based upon clinically achievable concentrations if the clinical Cmax of the agent was known.
Compounds. The drugs and investigational agents: alrizomadlin (APG-115; NSC831270), pelcitoclax (APG-1252; NSC835773), dasminapant (APG-1387;NSC834197), TAK-243 (NSC785004), copanlisib (NSC809693), olaparib (NSC753686), talazoparib (NSC767125), cobimetinib (NSC 768068), eltanexor (KPT-8602, NSC 794443), abemaciclib (NSC 768073), sotorasib (NSC818433), adagrasib (NSC 831453), MRTX-1133 (NSC 836407), Iadademestat (ORY1001, NSC 806812), and RMC-4630 (NSC839698), were obtained from the NCI Developmental Therapeutics Program Chemical Repository. The FDA-approved anticancer drug set is available from the Developmental Therapeutics Program at https://dtp.cancer.gov/organization/dscb/obtaining/available plates.htm. […] The stock solutions were prepared in dimethyl sulfoxide (DMSO, Sigma-Aldrich, St. Louis, MO, cat. D2650) at 800-fold the tested concentration and stored at -70 degrees C prior to their use. All drugs and investigational agents were tested over a range starting from a high concentration at or near the clinical Cmax and decreasing in half-log increments. If the clinical Cmax for an agent had not been determined, the highest concentration tested was 10 microM.
The patient-derived cancer (PDC) cell lines include five colon adenocarcinomas: 186277-243-T-J2-PDC, 616215-338-R-J1-PDC, 439559-082-T-J2-PDC, 463943-066-T-J2-PDC, and 519858-162-T-J1-PDC; three pancreatic carcinomas: 323965-272-R-J2-PDC, 521955-158-R6-J3-PDC, and 521955-158-R2-J5-PDC; two uterine sarcomas: 327498-152-R-J2-PDC and 993429-296-R-J1-PDC; two rhabdomyosarcomas: 755483-174-R-J1-PDC and 772245-204-R-J1-PDC; two soft tissue sarcomas: 126254-015-R-J1-PDC and 494315-158-R-J1-PDC; two malignant fibrous histiocytomas: 317291-083-R-J1-PDC and 596521-263-R-J1-PDC; two breast carcinomas: 171881-019-R-J1-PDC and 885512-296-R-J2-PDC; and one ovarian carcinoma: 6556581-035-R-J-PDC were obtained from the NCI PDMR, (https://pdmr.cancer.gov). The established cell lines HSSY-2 synovial sarcoma (RRID:CVCL 8719), SYO-1 synovial sarcoma (RRID:CVCL_7146), MPNST malignant peripheral neural sheath tumor were obtained from the Sloan Kettering Institute. The following established cell lines were purchased from the American Type Culture Collection (ATCC, Manassas, VA), Sor the received from the NCI repository:, PANC-1 pancreatic carcinoma (CRL-1469, RRID:CVCL_0480), OVCAR-5 ovarian carcinoma (RRID:CVCL_1628), OVCAR-8 ovarian carcinoma (RRID:CVCL_1629), , MCF-7 breast carcinoma (CRL-12584, RRID:CVCL_0031), MDA-MB-231 breast carcinoma (CRL-12532, RRID:CVCL_0062), NCI-H1876 small cell lung carcinoma (CRL-5902, RRID:CVCL_1503), NCI-H510A small cell lung carcinoma (HTB-184, RRID:CVCL_1565), NCI-H1417 (CRL-5869, RRID:CVCL_1469), and NCI-H196 small cell lung carcinoma (CRL-5823, RRID:CVCL_1509). Dr. Peter Houghton (Greehey Children's Cancer Research Institute, University of Texas Health Science Center, San Antonio, TX) provided Rh-18 rhabdomyosarcoma (RRID:CVCL_1659). Pooled donor human umbilical vein endothelial cells (HUVEC, Lonza, cat. CC-2519) and human mesenchymal stem cells (hMSC, Lonza, cat. PT-2501) were purchased from Lonza (Walkersville, MD).
Cell Culture. […]

[1] = second compound 0.0316 µM, first compound 0.0316 µM
[2] = second compound 0.0316 µM, first compound 0.1 µM
[3] = second compound 0.0316 µM, first compound 0.316 µM
[4] = second compound 0.0316 µM, first compound 1 µM
[5] = second compound 0.1 µM, first compound 0.0316 µM
[6] = second compound 0.1 µM, first compound 0.1 µM
[7] = second compound 0.1 µM, first compound 0.316 µM
[8] = second compound 0.1 µM, first compound 1 µM
[9] = second compound 0.316 µM, first compound 0.0316 µM
[10] = second compound 0.316 µM, first compound 0.1 µM
[11] = second compound 0.316 µM, first compound 0.316 µM
[12] = second compound 0.316 µM, first compound 1 µM
[13] = second compound 1 µM, first compound 0.0316 µM
[14] = second compound 1 µM, first compound 0.1 µM
[15] = second compound 1 µM, first compound 0.316 µM
[16] = second compound 1 µM, first compound 1 µM

IC50 (second compound 0.00316 µM): > 1 µM
IC50 (second compound 0.01 µM): > 1 µM
IC50 (second compound 0.0316 µM): > 1 µM
IC50 (second compound 0.1 µM): > 1 µM
IC50 (second compound 0.316 µM): > 1 µM
IC50 (second compound 1 µM): > 1 µM
SMILES: O=C(c1ccc(F)c(F)c1Nc1ccc(I)cc1F)N1CC(O)([C@@H]2CCCCN2)C1 + CNC(C)C(=O)NC1CN(S(=O)(=O)c2cccc(S(=O)(=O)N3CCC4CCC(C(=O)NC(c5ccccc5)c5ccccc5)N4C(=O)C(NC(=O)C(C)NC)C3)c2)CCC2CCC(C(=O)NC(c3ccccc3)c3ccccc3)N2C1=O
viability, T/C (second compound 0.00316 µM, first compound 0.00316 µM): 109%
viability, T/C (second compound 0.00316 µM, first compound 0.01 µM): 87.3%
viability, T/C (second compound 0.00316 µM, first compound 0.0316 µM): 114%
viability, T/C (second compound 0.00316 µM, first compound 0.1 µM): 80.5%
viability, T/C (second compound 0.00316 µM, first compound 0.316 µM): 80.5%
viability, T/C (second compound 0.00316 µM, first compound 1 µM): 70.6%
viability, T/C (second compound 0.01 µM, first compound 0.00316 µM): 110%
viability, T/C (second compound 0.01 µM, first compound 0.01 µM): 93.6%
viability, T/C (second compound 0.01 µM, first compound 0.0316 µM): 96.2%
viability, T/C (second compound 0.01 µM, first compound 0.1 µM): 82.3%
viability, T/C (second compound 0.01 µM, first compound 0.316 µM): 90.8%
viability, T/C (second compound 0.01 µM, first compound 1 µM): 81.7%
viability, T/C (second compound 0.0316 µM, first compound 0.00316 µM): 98.5%
viability, T/C (second compound 0.0316 µM, first compound 0.01 µM): 90.3%
viability, T/C [1]: 102%
viability, T/C [2]: 87.3%
viability, T/C [3]: 85.5%
viability, T/C [4]: 83.2%
viability, T/C (second compound 0.1 µM, first compound 0.00316 µM): 106%
viability, T/C (second compound 0.1 µM, first compound 0.01 µM): 103%
viability, T/C [5]: 96.3%
viability, T/C [6]: 89.8%
viability, T/C [7]: 86.3%
viability, T/C [8]: 90.5%
viability, T/C (second compound 0.316 µM, first compound 0.00316 µM): 106%
viability, T/C (second compound 0.316 µM, first compound 0.01 µM): 90.1%
viability, T/C [9]: 89.9%
viability, T/C [10]: 96.9%
viability, T/C [11]: 97%
viability, T/C [12]: 72.3%
viability, T/C (second compound 1 µM, first compound 0.00316 µM): 107%
viability, T/C (second compound 1 µM, first compound 0.01 µM): 93.7%
viability, T/C [13]: 99.2%
viability, T/C [14]: 97.4%
viability, T/C [15]: 88%
viability, T/C [16]: 69.8%

IC50 (second compound 0.0316 µM): > 10 µM
IC50 (second compound 0.1 µM): > 10 µM
IC50 (second compound 0.316 µM): > 10 µM
IC50 (second compound 1 µM): > 10 µM
IC50 (second compound 3.16 µM): > 10 µM
IC50 (second compound 10 µM): > 10 µM
SMILES: C#Cc1c(F)ccc2cc(O)cc(-c3ncc4c(N5CC6CCC(C5)N6)nc(OCC56CCCN5CC(F)C6)nc4c3F)c12 (centres undefined) + Cc1c(S(C)(=O)=O)c(-c2cc(F)cc(N3CCN(c4ccc(NS(=O)(=O)c5ccc(NC(CCN6CCC(C(=O)OCCCP(=O)(O)O)CC6)CSc6ccccc6)c(S(=O)(=O)C(F)(F)F)c5)cc4)CC3)c2)c(-c2ccc(Cl)cc2)n1C(C)C
viability, T/C [1]: 98.7%
viability, T/C [2]: 84.9%
viability, T/C [3]: 108%
viability, T/C [4]: 91.2%
viability, T/C (second compound 0.0316 µM, first compound 3.16 µM): 96.8%
viability, T/C (second compound 0.0316 µM, first compound 10 µM): 92.9%
viability, T/C [5]: 92.2%
viability, T/C [6]: 101%
viability, T/C [7]: 99.3%
viability, T/C [8]: 83.1%
viability, T/C (second compound 0.1 µM, first compound 3.16 µM): 90.6%
viability, T/C (second compound 0.1 µM, first compound 10 µM): 88%
viability, T/C [9]: 106%
viability, T/C [10]: 90.5%
viability, T/C [11]: 85.5%
viability, T/C [12]: 90.7%
viability, T/C (second compound 0.316 µM, first compound 3.16 µM): 86.5%
viability, T/C (second compound 0.316 µM, first compound 10 µM): 86.7%
viability, T/C [13]: 90%
viability, T/C [14]: 97.8%
viability, T/C [15]: 102%
viability, T/C [16]: 92%
viability, T/C (second compound 1 µM, first compound 3.16 µM): 88.2%
viability, T/C (second compound 1 µM, first compound 10 µM): 73.5%
viability, T/C (second compound 3.16 µM, first compound 0.0316 µM): 101%
viability, T/C (second compound 3.16 µM, first compound 0.1 µM): 108%
viability, T/C (second compound 3.16 µM, first compound 0.316 µM): 89.5%
viability, T/C (second compound 3.16 µM, first compound 1 µM): 87.4%
viability, T/C (second compound 3.16 µM, first compound 3.16 µM): 87.3%
viability, T/C (second compound 3.16 µM, first compound 10 µM): 74.7%
viability, T/C (second compound 10 µM, first compound 0.0316 µM): 93.2%
viability, T/C (second compound 10 µM, first compound 0.1 µM): 99.4%
viability, T/C (second compound 10 µM, first compound 0.316 µM): 109%
viability, T/C (second compound 10 µM, first compound 1 µM): 93.6%
viability, T/C (second compound 10 µM, first compound 3.16 µM): 95.8%
viability, T/C (second compound 10 µM, first compound 10 µM): 77%

Source: PubChem BioAssay AID1963441 (Molecular Pharmacology Branch, DTP, NCI, 2024)
